For this test, the system named is CEM cells HIV-1 protection, formazan growth assay. Description: NCI AIDS Antiviral Assay. The note with it: for IC50: measured here: growth of uninfected CEM cells. The procedure, abridged:
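Steps: treat uninfected and HIV-1-infected human CEM cells at five drug levels; quantify growth by soluble formazan; retest any compound reaching 50% protection; classify actives from the retest.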

The source made the active and inactive calls.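 The calls were made as follows: active = compounds giving half or more protection of infected cells from virus-caused growth loss, again on retest; inactive = the rest.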

In general, EC50 refers to the concentration giving half of the maximal effect. By IC50 is commonly meant the concentration that inhibits the measured activity by half.

Consider `COc1ccc2c(c1)CCC(OS(=O)(=O)CC13CCC(CC1=O)C3(C)C)C2=O` (stereo not given), for which the EC50 is > 200 µM and the IC50 amounted to 10.5 µM.

Take `CCOC(=O)c1nc2cc(Cl)ccc2[nH]c1=O`: the EC50 is > 200 µM and the IC50 came out at 105 µM.

In the case of `O=C1/C(=C/c2cccc(Br)c2)CSC/C1=C\c1cccc(Br)c1`, the EC50 is > 200 µM and the half-inhibitory concentration (IC50) worked out at 2.88 µM.

As for `O=C(O)CCSSCCCCCS(=O)O`, the EC50 was > 200 µM and the IC50 turned out to be 24 µM.

`O=C(O)OC12CCCCCC1C(=O)C1CCCCC12` (stereo not given): the EC50 was > 200 µM and the IC50 was > 200 µM.

For the compound `C[C@@H](CC(=O)OCc1ccccc1)OC1OC(COC(=O)C(C)(C)C)C(OC(=O)C(C)(C)C)C(OC(=O)C(C)(C)C)C1OC(=O)C(C)(C)C` (stereo not given in full), the EC50 was > 200 µM and the IC50 was > 200 µM.

On to `O=C(O)/C=C\C(=O)c1ccc(Cl)cc1`, for which the EC50 was > 324 µM and the IC50 is 58.9 µM.

In the case of `Cc1cn(CCCCCCOC(=O)NC(CCCNC(N)=O)C(=O)O)c(=O)[nH]c1=O` (stereo not given), the EC50 is > 200 µM and the IC50 is > 200 µM.

Turning to `O=c1c2ccccc2oc2ccccc12` (tested in a mixture with another compound), the EC50 is > 11 µM and the IC50 was 0.776 µM.

For `CC1=C(C(=O)Nc2ccccc2C)C(c2ccc(Cl)c(Cl)c2)C(C(=O)Nc2ccccc2C)=C(C)N1`, the outcome was inactive.

Turning to `Cc1cc(-c2ccc(N=Nc3c(N)c(C)cc(S(=O)(=O)O)c3N)c(C)c2)ccc1N=Nc1ccc(O)c(C(=O)O)c1`, the EC50 was 126 µM and the IC50 is > 200 µM.

For the compound `N#C/C(=N/Nc1nc[nH]c1C(N)=O)C(=O)Nc1ccccc1`, the EC50 was > 200 µM and the IC50 is 1.07 µM.

On to `O=[N+]([O-])c1cccc(S(=O)(=O)N/N=C/c2cc(I)cc([N+](=O)[O-])c2O)c1`, for which the EC50 is > 363 µM and the IC50 turned out to be 63.1 µM.

As for `C=CC1(C)CC(=O)C2(O)C(C)(O1)C(OC(C)=O)C(O)C1C(C)(C)CCC(O)C12C` (stereo not given), the outcome was inactive.

`Cc1cc(N(C)c2ccccc2)nc(N(C)c2ccccc2)n1`: the EC50 is > 200 µM and the IC50 worked out at 60.3 µM.

For the compound `Oc1ccccc1/C=N/N1C(=S)N(C23CC4CC(CC(C4)C2)C3)C(=Nc2ccccc2)C1=Nc1ccccc1`, the EC50 is > 200 µM and the IC50 was 85.1 µM.

Consider `CCOC(=O)C(=Cc1ccc(C#N)cc1)C(=O)OCC`, for which the EC50 is > 132 µM and the IC50 turned out to be 8.91 µM.

As for `C=[N+]([O-])CC[C@@]1(O)C[C@H](n2ccc(=O)[nH]c2=O)O[C@@H]1CO[Si](C)(C)C(C)(C)C`, the EC50 was > 200 µM and the half-inhibitory concentration (IC50) was determined as 44.7 µM.

Consider `Cc1ccccc1NC(=O)/C(=N\NC(N)=S)C(C#N)c1ccccc1` (stereo not given), for which the EC50 is > 186 µM and the IC50 is > 186 µM.

Regarding `C=CCn1c(=S)sc2c(C(=O)OCC)c3c(C)cc(C)cn3c2c1=O`, the EC50 is > 3.89 µM and the IC50 was > 3.89 µM.

Consider `O=C1N=C2N=C(c3ccc(Cl)cc3)N(c3ccc(Cl)cc3)N2Sc2ccccc21`, for which the EC50 is > 11.2 µM and the IC50 is > 11.2 µM.

On to `CC(=O)ONC(=O)CSc1nn2cc(-c3ccccc3)nc2s1`, for which the EC50 was 186 µM and the IC50 was > 200 µM.

`CCOc1cc2c(cc1O)CC[C@@H]1[C@@H]2CC[C@]2(C)C(OS(=O)OC3CC[C@@H]4[C@H]5CCc6cc(O)c(OCC)cc6[C@@H]5CC[C@@]34C)CC[C@@H]12` (stereo not given in full): the EC50 was > 2 µM and the IC50 turned out to be 0.537 µM.

Regarding `Cc1cc2c(=O)cc(-c3cccs3)oc2c(C(=O)O)c1C`, the outcome was inactive.

With `O=C1CCC2CN3CCc4c([nH]c5ccccc45)C3CC2C1` (stereo not given), the EC50 is > 45.7 µM.

Regarding `CCCCc1ccc(Nc2nc(OC)c3ncn(C4CC(O)C(CO)O4)c3n2)cc1` (stereo not given), the EC50 is > 200 µM and the IC50 came out at 15.1 µM.

For `Cc1cc(S(=O)(=O)/N=C(/NN)Nc2ccc(Cl)cc2)c(S)cc1Cl`, the EC50 was > 200 µM and the IC50 turned out to be 10 µM.

Turning to `CC(=O)Nc1nc(N)nc(NC(C)=O)c1N=O`, the EC50 was > 200 µM and the IC50 is 30.9 µM.

In the case of `Nc1c(Br)cc2c([nH]c(=O)c3cc(Br)ccc32)c1Br`, the EC50 was > 200 µM and the IC50 came to 38.9 µM.

Consider `CCOP(=O)(OCC)C1CCCOC1=O` (stereo not given), for which the outcome was inactive.

Consider `CCN1C[C@]2(COC(=O)c3ccccc3N3C(=O)CC(C)C3=O)CCC(OC)C34[C@@H]5C[C@@H]6C(OC)[C@@H]5[C@](O)(C[C@@H]6OC)[C@@](O)([C@H]13)[C@@H](OC)[C@@H]42` (stereo not given in full), for which the outcome was inactive.

As to `Cc1c(Cl)ccc2c1NC(=O)C2(O)CC(=O)c1cccc2ccccc12` (stereo not given), the EC50 was > 97.7 µM and the IC50 was > 97.7 µM.

Turning to `COC(C(=O)[O][Ge]([CH3])([CH3])[CH3])c1ccccc1` (stereo not given), the EC50 is > 251 µM and the IC50 is > 251 µM.

`COc1ccc(Nc2ccnc3cc(Cl)ccc23)cc1CCN`: the EC50 was > 89.1 µM and the IC50 was > 89.1 µM.

In the case of `NC(=O)N/N=C1\CC2C3CC4C2C4C13` (stereo not given), the EC50 was > 200 µM and the IC50 is > 200 µM.

Take `O=C1Sc2ccccc2C(=O)N2CSCC12` (stereo not given): the outcome was inactive and the IC50 is > 200 µM.

Consider `COC(=O)c1ncn(C)c1O`, for which the EC50 was > 200 µM and the IC50 was > 200 µM.

`O=C1C2c3[nH]c4ccccc4c3[C@@H]3CCCCCCCCCCC3C2C(=O)N1c1ccccc1` (stereo not given in full): the outcome was inactive.

On to `COC12C=CC(CC1)C(C)(C)C2=O` (stereo not given), for which the EC50 was > 200 µM and the IC50 was > 200 µM.

On to `COc1ccc(/C=C2/SC(c3c(O)ccc4ccccc34)N(NC(=O)CCCCCCCCC(=O)NN3C(=O)/C(=C\c4ccc(OC)c(OC)c4)SC3c3c(O)ccc4ccccc34)C2=O)cc1OC` (stereo not given), for which the EC50 was > 200 µM and the IC50 was found to be 8.51 µM.

With `O=C(NNc1ccccc1)C(O)C(O)C(O)C(O)C(O)CO` (stereo not given), the result was inactive.

For `CCn1cc(C(=O)O)c(=O)c2cc3c(cc21)S(=O)(=O)CC3`, the EC50 is > 200 µM and the IC50 was > 200 µM.

Regarding `S=c1c2ccccc2c(=S)n(-c2ccccc2)n1-c1ccccc1`, the EC50 is > 200 µM and the IC50 was > 200 µM.

Take `COc1ccc(C2C(N)=NCC2c2ccccn2)cc1` (stereo not given): the result was inactive.

For the compound `O=c1c(Cl)c(Cl)cnn1-c1ccc([N+](=O)[O-])cc1[N+](=O)[O-]`, the EC50 is > 20.4 µM and the IC50 is > 20.4 µM.

On to `O/N=C1/C(=C/c2ccc3c(c2)OCO3)CCCC1C(NO)c1ccc2c(c1)OCO2` (stereo not given), for which the EC50 is > 12.6 µM and the IC50 is > 12.6 µM.

In the case of `O=C1C(=Cc2c(O)cc(O)cc2O)C(=O)c2ccccc21`, the EC50 was > 17.8 µM and the IC50 is > 17.8 µM.

`CCOC(=O)CCCNC(=O)c1ccccc1SC(=O)CCCC[n+]1ccccc1`: the EC50 was > 2 µM and the IC50 amounted to 0.912 µM.

As for `COc1ccc(N2C(=O)C3c4[nH]c5ccc(OCc6ccccc6)cc5c4C4CCC(c5ccccc5)CC4C3C2=O)cc1` (stereo not given), the EC50 is > 100 µM and the IC50 was > 100 µM.

As to `Cc1cc([N+](=O)[O-])c(=O)[nH]c1C`, the EC50 was > 1480 µM and the IC50 was found to be 832 µM.

In the case of `COC(=O)[C@@H]1C[C@@]23CCCN4CC[C@@]5(c6cccc(OC)c6N(C=O)[C@]15CC2)[C@@H]43`, the EC50 is > 66.1 µM and the IC50 is > 66.1 µM.

With `O=C(NC(=Nc1ccccc1)SCSC(=Nc1ccccc1)NC(=O)c1ccccc1F)c1ccccc1F`, the EC50 is > 200 µM and the IC50 worked out at 28.8 µM.

Take `CC(C)Oc1c(O)c2c3c(oc(=O)n3C=CC2c2ccccc2F)c1OC(C)C` (stereo not given): the EC50 is > 200 µM and the IC50 stood at 29.5 µM.

Take `COc1ccc(COCC(Cn2ccnc2)OCc2ccc(C(=O)O)cc2)cc1` (stereo not given): the EC50 is > 631 µM and the IC50 is 589 µM.

As to `N/N=C1\C(=O)N(Cc2ccccc2)C(=O)C1C(=O)NCc1ccccc1` (stereo not given), the EC50 is > 7.76 µM and the IC50 was > 7.76 µM.

In the case of `C/C=C1\CN(C(=O)OC(C)(C)C)C1C(=O)OC(C)(C)C` (stereo not given), the EC50 was > 200 µM and the IC50 turned out to be 85.1 µM.

With `CCn1nc(C(=O)O)c(=O)c2cc3c(cc21)OCO3`, the EC50 was > 200 µM and the IC50 was > 200 µM.

As for `S=C1SCN(C(c2ccccc2)c2ccccc2)CN1C(c1ccccc1)c1ccccc1`, the EC50 is > 200 µM and the IC50 is 4.47 µM.

Consider `Cc1cccc(N2C(=O)C(=O)C(c3nc4ccccc4s3)/C(=N/NC(=S)NN)C2=O)c1C` (stereo not given), for which the EC50 was > 269 µM and the IC50 is > 269 µM.

Consider `CC(C)(c1ccsc1)c1sccc1C(=O)O`, for which the EC50 was > 200 µM and the IC50 was > 200 µM.

Consider `C=C1CC(c2ccc(S(=O)(=O)N3CCOCC3)cc2)OC1=O` (stereo not given), for which the EC50 is > 200 µM and the IC50 came out at 2.82 µM.

On to `Cc1ccc(NC(=S)/N=C/C(C(=O)c2ccccc2)=C(\O)c2ccccc2)c(C)c1`, for which the EC50 was > 200 µM and the IC50 stood at 31.6 µM.

Turning to `CCOP(=O)(OCC)C(c1ccccc1)N(C(=O)NC(F)(F)F)c1cccc(F)c1` (stereo not given), the EC50 is > 200 µM and the IC50 worked out at 95.5 µM.

Take `CC1N=C(c2ccccc2)c2cc(Cl)ccc2NC1=O` (stereo not given): the EC50 was > 18.2 µM and the concentration for half-maximal inhibition (IC50) was > 18.2 µM.

On to `O=C1C=CC(O)=CC1=P(c1ccccc1)(c1ccccc1)c1ccccc1`, for which the EC50 is > 200 µM and the IC50 came out at 32.4 µM.

Consider `COC(=O)c1c[nH]cc1CCc1c[nH]cc1C(=O)OC`, for which the result was inactive.

On to `N#CC(/C=C/c1ccccc1)Nc1ccccc1` (stereo not given), for which the EC50 is > 22.4 µM and the IC50 is > 22.4 µM.

For the compound `CCC(=O)Nc1nc2c(ncn2C2OC(COC(=O)CC)C(OC(=O)CC)C2OC(=O)CC)c(=O)[nH]1` (stereo not given), the EC50 was > 355 µM and the IC50 came out at 309 µM.

With `CCCNC(=O)N(C)C(=O)N1N=C(c2ccccc2)C1c1ccccc1` (stereo not given), the EC50 is 4.57 µM and the concentration for half-maximal inhibition (IC50) turned out to be 52.5 µM.

With `Cc1cccc(NC(=O)NCCOC(=O)OCCNC(=O)Nc2cccc(C)c2C)c1C`, the EC50 is > 200 µM and the IC50 was > 200 µM.

Source of the values: PubChem BioAssay AID179 (DTP/NCI, 2004).
